The values below come from publication PMC9307946, “A peptoid-based inhibitor of protein arginine methyltransferase 1 (PRMT1) induces apoptosis and autophagy in cancer cells” (The Journal of Biological Chemistry, 2022).

“And” between values parts separate entries of the source, which are not always exact repeats. Equal entries are not always repeated. *1 amine or outer side, *2 acyl side, *3 side chain or, on linkers, in order; H or OH if unused. Where a SMILES comes first, the peptide text is derived from it. [ ]: non-standard residue; d: D form. X2 = N=C(CCl)NCCC[C@H](N[*:1])C(=O)[*:2]; X1 = N=C(CCl)NCCCN(CC(=O)[*:2])[*:1]; Gly(N-CH2CH2OH) = O=C(O)CNCCO; Nleu = CC(C)CNCC(=O)O; Nlys = NCCCCNCC(=O)O; Sar = CNCC(=O)O Where only a bound is given, the exact number is not on record here.

In test [1] the target is T1, PRMT5 (Homo sapiens, UniProt O14744).
T1 construct: made in house
The test can be described thus: MTase-Glo methyltransferase IC50 assay, PRMT5. The test is classed as biochemical. To be noted: 200 nM PRMT5, AcH4-21 substrate 225 μM. The procedure: (§1) The IC50 value for the peptoid inhibitors were measured using the MTase-Glo methyltransferase assay kit (Promega). The peptoid was incubated in assay buffer (20 mM Tris-HCl pH 8.0, 50 mM NaCl, 1 mM EDTA, 3 mM MgCl2, 0.1 mg/ml BSA, 1 mM DTT) and […] (0–1000 μM). After a preincubation of 10 min, 200 nM PRMT1 or PRMT5 was added to the assay before adding in the substrate (AcH4-21) at 225 μM. After 15 min, the reaction was quenched with 0.5% TFA (0.1% final concentration), vortexed, and incubated for an additional 10 min. To detect product formation, the MTase-Glo reagent was added for 30 min at rt, followed by addition of the MTase-Glo detection solution for an additional 30 min. Finally, the luminescence signal was measured using a BioTek Synergy two multi-mode microplate reader. The values were converted to product concentration using a standard curve of SAH (0–5 μM). The IC50 values were determined using Equation 1 and fit to a curve using GraFit 7.03.(1) FractionalactivityofPRMT=1/(1+([I]/IC50)) IC50 is the concentration of inhibitor resulting in 50% PRMT activity, and [I] is the inhibitor concentration.

The target of test [2] is T2, PRMT1 (Homo sapiens, UniProt Q99873).
T2 construct: made in house
Put plainly: MTase-Glo methyltransferase IC50 assay, PRMT1. The test is classed as biochemical. As to conditions: for IC50: 200 nM PRMT1, AcH4-21 substrate 225 μM. How it is done:
as §1

T2 sequence (Q99873 1-353 isoform Q99873-3, species assumed): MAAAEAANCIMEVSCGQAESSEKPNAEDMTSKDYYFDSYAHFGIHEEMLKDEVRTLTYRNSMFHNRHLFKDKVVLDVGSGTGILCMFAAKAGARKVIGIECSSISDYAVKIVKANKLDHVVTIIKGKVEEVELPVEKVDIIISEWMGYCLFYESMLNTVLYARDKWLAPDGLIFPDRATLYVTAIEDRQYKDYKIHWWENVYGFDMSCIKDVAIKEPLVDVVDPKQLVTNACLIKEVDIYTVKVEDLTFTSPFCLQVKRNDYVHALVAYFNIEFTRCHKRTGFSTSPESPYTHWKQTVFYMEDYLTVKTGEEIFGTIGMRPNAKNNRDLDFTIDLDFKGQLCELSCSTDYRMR
T1 sequence (O14744 whole entry, species assumed): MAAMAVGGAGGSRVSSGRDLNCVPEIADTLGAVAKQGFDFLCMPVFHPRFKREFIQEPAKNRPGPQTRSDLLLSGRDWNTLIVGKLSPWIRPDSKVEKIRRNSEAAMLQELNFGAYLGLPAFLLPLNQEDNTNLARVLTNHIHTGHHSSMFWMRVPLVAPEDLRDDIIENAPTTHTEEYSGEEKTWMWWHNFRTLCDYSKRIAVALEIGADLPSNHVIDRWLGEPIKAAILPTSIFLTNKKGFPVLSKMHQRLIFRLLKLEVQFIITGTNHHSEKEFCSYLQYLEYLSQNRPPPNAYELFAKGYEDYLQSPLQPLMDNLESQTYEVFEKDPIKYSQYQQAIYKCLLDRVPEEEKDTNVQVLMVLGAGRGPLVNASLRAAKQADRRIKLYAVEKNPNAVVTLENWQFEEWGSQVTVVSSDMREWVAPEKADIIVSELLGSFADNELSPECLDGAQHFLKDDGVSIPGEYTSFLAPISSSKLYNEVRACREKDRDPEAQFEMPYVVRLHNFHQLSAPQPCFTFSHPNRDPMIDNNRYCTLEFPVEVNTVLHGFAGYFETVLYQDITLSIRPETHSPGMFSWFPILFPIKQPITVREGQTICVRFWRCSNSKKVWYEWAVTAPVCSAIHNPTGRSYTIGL

Take `CC(=O)N(CCO)CC(=O)NCC(=O)N(CCCNC(=N)CCl)CC(=O)NCC(=O)N(CCCCN)CC(=O)NCC(=O)NCC(=O)N(CCCCN)CC(=O)NCC(=O)N(CC(=O)NCC(=O)N(CCCCN)CC(=O)NCC(=O)NCC(=O)N(C)CC(=O)N(CCCCN)CC(N)=O)CC(C)C` [compound P2A] (Ac-[Gly(N-CH2CH2OH)]G[X1]G[Nlys]GG[Nlys]G[Nleu]G[Nlys]GG[Sar][Nlys]-NH2): the IC50 in test [1] is greater than 500 µM.

Regarding `CC(=O)N[C@@H](CO)C(=O)NCC(=O)N[C@@H](CCCNC(=N)CCl)C(=O)NCC(=O)N[C@@H](CCCCN)C(=O)NCC(=O)NCC(=O)N[C@@H](CCCCN)C(=O)NCC(=O)N[C@@H](CC(C)C)C(=O)NCC(=O)N[C@@H](CCCCN)C(=O)NCC(=O)NCC(=O)N[C@@H](C)C(=O)N[C@@H](CCCCN)C(N)=O` [AcH4-16 warhead peptide] (Ac-SG[X2]GKGGKGLGKGGAK-NH2; C-terminus assumed), in test [2], the IC50 was found to be 46.9 ± 4.86 µM.

Take `CC(C)CN(CC(=O)NCC(=O)N(CCCCN)CC(=O)NCC(=O)NCC(=O)N(C)CC(=O)N(CCCCN)CC(N)=O)C(=O)CNC(=O)CN(CCCCN)C(=O)CNC(=O)CNC(=O)CN(CCCCN)C(=O)CNC(=O)CN(CCCNC(=N)CCl)C(=O)CNC(=O)CNCCO` [compound P2] (H-[Gly(N-CH2CH2OH)]G[X1]G[Nlys]GG[Nlys]G[Nleu]G[Nlys]GG[Sar][Nlys]-NH2): the half-inhibitory concentration (IC50) is 8.73 ± 0.314 µM in test [2] and greater than 500 µM in test [1]. Further, the “increase in potency (PRMT1 IC50) compared to the non-warhead H4-16 peptoid” value in test [2] (warhead peptoid vs corresponding original peptoid) was 45 fold and > 45 fold.

For `CC(C)C[C@H](NC(=O)CNC(=O)[C@H](CCCCN)NC(=O)CNC(=O)CNC(=O)[C@H](CCCCN)NC(=O)CNC(=O)[C@H](CCCNC(=N)CCl)NC(=O)CNC(=O)[C@@H](N)CO)C(=O)NCC(=O)N[C@@H](CCCCN)C(=O)NCC(=O)NCC(=O)N[C@@H](C)C(=O)N[C@@H](CCCCN)C(N)=O` [Compound P2 Peptide] (H-SG[X2]GKGGKGLGKGGAK-NH2; N-terminus and C-terminus assumed), in test [2], the IC50 stood at 29.6 ± 5.16 µM.
